The source of these data is patent US7026292B1, “Compositions and therapeutic methods using morphogenic proteins and stimulatory factors” (Stryker Corporation, priority 1995, dated 2006).

This experiment concerns FRC (fetal rat calvarial) cells. Nature of the experiment: Alkaline phosphatase (AP) activity assay in FRC cells. Format: cell-based. Conditions: for MPSF function in concert with OP-1 (figure title): OP-1 200 ng/ml (FIGS. 5–10); for Stimulation of OP-1 osteogenic induction (figure title): OP-1 500 ng/ml (FIG. 1, FIG. 11). As to the method: A preferred assay for testing potential MPSFs with OP-1 for osteogenic activity is the alkaline phosphatase (AP) enzymatic assay. AP is an osteoblast differentiation marker in primary osteoblastic FRC. (fetal rat calvarial) cells. The OP-1-stimulated AP activity is the result of increased steady-state AP mRNA levels as measured by Northern analysis. The procedure is generally as follows.
Primary osteoblast cell cultures were prepared from fetal rat calvaria using published procedures (M. A. Aronow et al., J. Cell Physiol., 143, pp. 213–221 (1990); T. K. McCarthy et al., J. Bone Miner. Res., 3, pp. 401–8 (1988)). Briefly, cells were harvested by sequential collagenase digestions of the calvarium and cells from digestions III to V were pooled. Fetal rat calvaria (FRC) cells were plated in complete medium (MEM, alpha; GIBCO/BRL, Grand Island, N.Y.) containing 10% fetal bovine serum, vitamin C (100 μg/ml), and antibiotics (100 U/ml penicillin, and […]). Cultures were incubated at 37° C. with 95% air/5% CO2 for several days to reach confluence. Cells were then subcultured for experimentations.
FRC cells were subcultured in 48-well plates (COSTAR, Cambridge, Mass.) in complete MEM medium with 10% fetal bovine serum until confluent in about 4 days. Confluent cells were rinsed with Hank's balanced salt solution (HBSS) and treated with serum-free α-MEM medium (with 0.1% BSA, 100 U/ml penicillin, and […]) containing the appropriate solvent vehicle (50% acetonitrile/0.1% trifluoroacetic acid for OP-1 treatment or 0.1N acetic acid for IGFI treatment) or recombinant human OP-1, or IGFI at the concentrations indicated. Solvent vehicle concentration in the culture medium never exceeded 0.1%. At the end of treatment, cells were lysed and total cellular alkaline phosphatase activity was measured (typically after 48 hours of treatment).
Total cellular alkaline phosphatase activity was determined using a commercial assay kit (Sigma, St. Louis, Mo.). Cell lysates were prepared by aspirating the medium from the 48-well plate, rinsing the cells with ice-cold PBS, and lysing the cells with 0.05% Triton X-100 and sonication for 60 sec. Alkaline phosphatase activity in the lysates was measured in 2-amino-2-methyl-1-propanol buffer (pH 10.3) with p-nitrophenyl phosphate as substrate at 37° C. Reactions were performed in 96-well plates for 1–2 h. Following color development, reactions were terminated with 0.5N NaOH. Absorbance of the reaction was measured at 405 nm using a Hewlett Packard Genenchem automatic plate reader. Total protein level in the lysates was measured according to Bradford (M. Bradford, Anal. Biochem., 72, pp. 248–54 (1976)) using bovine serum albumin as a standard. Alkaline phosphatase activity was expressed as nmol p-nitrophenol liberated per microgram of total cellular protein. […]
At least four experimental groups were tested: control cells treated with no OP-1 or MPSF; group I cells treated with increasing concentrations of MPSF alone; […]; and group III cells, […] concentrations of the MPSF.

Where [1] appears, read: 0.5 nM HC + 200 ng/ml OP-1, 48 hours (FIG. 7).
Setting [2] is: PG 5 nM + 200 ng/ml OP-1, 48 hours (FIG. 10).
[3] abbreviates: IGF-I + OP-1 500 ng/ml (FIG. 1).
[4] abbreviates: 0.05 nM or 0.5 nM insulin + 200 ng/ml OP-1, 48 hours (FIG. 8).

In the case of `C[C@]12CCC(=O)C=C1CC[C@@H]1[C@@H]2[C@@H](O)C[C@@]2(C)[C@H]1CC[C@]2(O)C(=O)CO` [HC, hydrocortisone, reference compound], under setting [1], the “Level of AP activity relative to cells treated with OP-1 alone” value is reported as “about two-fold” and the “Level of AP activity relative to control cells” value was “about three-fold”. For the same molecule, the “MPSF function in concert with OP-1 (figure title)” value (from here on “MPSF function in concert”) (AP activity in FRC cells) is recorded as “is a MPSF in concert with OP-1”. In addition, the “Stimulation of AP activity by HC alone” value (HC 0.05–5 nM alone, 48 hours (FIG. 7)) was “did not stimulate AP activity”.
With `CC(=O)[C@H]1CC[C@H]2[C@@H]3CCC4=CC(=O)CC[C@]4(C)[C@H]3CC[C@]12C` [PG, progesterone, reference compound], under “AP activity in FRC cells”, the “MPSF function in concert” value is recorded as “is a MPSF in concert with OP-1”. Moreover, under setting [2], the “Level of AP activity relative to cells treated with OP-1 alone” value is recorded as “about two-fold” and the “Level of AP activity relative to control cells” value is reported as “about four-fold”. Moreover, the “Stimulation of AP activity beyond control cells” value (PG alone 5 nM, 48 hours (FIG. 10)) is given as “about three-fold”.
“IGF-I: insulin-like growth factor I, tested as morphogenic protein stimulatory factor (MPSF)”: the “Stimulation of OP-1 osteogenic induction (figure title)” value (AP activity in FRC cells) was “stimulates OP-1 osteogenic induction”. For the same molecule, where the note is “IGF-I 10 ng/ml, OP-1 100 ng/ml (FIG. 3)”, the “Potentiation of OP-1-stimulated AP activity by IGF-I” value is 1.5–2 fold. Moreover, the “Synergistic effect on AP level, timing of IGF-I addition” value is reported as “reduced significantly” (IGF-I 25 ng/ml added 6 h or later after OP-1 500 ng/ml, 48 h (FIG. 4)); “maximum synergistic effect” (OP-1 500 ng/ml and IGF-I 25 ng/ml added simultaneously, 48 h (FIG. 4)); “abolishes the synergistic effect” (pre-incubation with IGF-I 25 ng/ml for 24 h followed by OP-1 500 ng/ml). Further, the “Maximum enhancement of OP-1-stimulated AP activity by IGF-I” value (IGF-I 25 ng/ml, OP-1 200 ng/ml (FIG. 3)) is given as “about 2.5 fold”. In addition, where the note is “IGF-I 1–100 ng/ml, no OP-1 (FIG. 3)”, the “Stimulation of AP activity by IGF-I in the absence of OP-1” value was “did not stimulate AP activity”. Under setting [3], the “Enhancement of OP-1-stimulated AP activity by IGF-I” value was 3–4 fold. Under setting [3], the “Kind of stimulatory effect of IGF-I on OP-1-stimulated AP activity” value is “synergistic”. Further, for the setting “IGF-I above 25 ng/ml (up to 100 ng/ml) with OP-1 (FIG. 3)”, the “Potentiation of OP-1-stimulated AP activity at higher IGF-I concentrations” value is “no longer potentiates”. Also, the “Stimulation of AP activity by IGF-I alone” value (exogenous IGF-I alone up to 300 ng/ml, no OP-1 (FIG. 1)) is recorded as “did not stimulate AP activity”.
“IGF-II: member of the IGF growth factor family”: the “Stimulation of OP-1 osteogenic induction (figure title)” value (AP activity in FRC cells) is listed as “does not stimulate OP-1-induced osteogenic induction”. In addition, where the note is “IGF-II 10–300 ng/ml + OP-1 500 ng/ml (FIG. 11)”, the “Effect of IGF-II on OP-1-stimulated increase in AP activity” value was “neither enhanced nor inhibited”. In addition, the “Effect of IGF-II on the synergistic effect of IGF-I on OP-1” value (IGF-II (925 ng/ml as printed) + IGF-I 25 ng/ml + OP-1 500 ng/ml) is listed as “does not further potentiate”.
As for TGF-β, the “Stimulation of OP-1-induced osteogenic induction (figure title)” value (AP activity in FRC cells, OP-1 100, 200 or 500 ng/ml (FIG. 12)) is reported as “does not stimulate OP-1-induced osteogenic induction”. In addition, the “Synergistic effect of TGF-β with OP-1 on AP activity” value (TGF-β 0.05–3.0 ng/ml with OP-1 (FIG. 12)) is recorded as “did not exhibit any synergistic effect”. Besides, the “Stimulation of AP activity by TGF-β alone” value (TGF-β alone, no OP-1 (FIG. 12)) is given as “did not stimulate AP activity”.
Regarding “hGH: growth hormone (hGH), purchased from Sigma”, the “MPSF function in concert” value (AP activity in FRC cells) is “is a MPSF in concert with OP-1”. Where the note is “all hGH concentrations tested (10–1000 ng/ml) + 200 ng/ml OP-1, 48 hours (FIG. 6)”, the “Induction of AP activity over OP-1 alone” value was “stimulated the induction of AP activity”. For the same molecule, the “Concentration dependence of hGH stimulation of AP activity” value (higher versus lower hGH concentrations + 200 ng/ml OP-1, 48 hours (FIG. 6)) was “more of a stimulatory effect”.
With insulin: insulin, purchased from Sigma, under setting [4], the “Level of AP activity relative to cells treated with OP-1 alone” value is given as “about two-fold” and the “Level of AP activity relative to control cells” value is “about four-fold”. For the same molecule, the “MPSF function in concert” value (AP activity in FRC cells) is reported as “is a MPSF in concert with OP-1”. Also, where the note is “insulin 0.05–5 nM alone, 48 hours (FIG. 8)”, the “Stimulation of AP activity by insulin alone” value is “did not stimulate AP activity”.
